From DBAASP
≈ marks a conversion by molar mass, not a printed value.

Columns and labels:
Test in all cases: ≥ marks a high value that may be exact or a test limit, other limits are often not marked, values filed in µg/mL are converted to µM
[1] = system: Bordetella bronchiseptica MTCC 6837
[2] = system: Vibrio cholerae MTCC 3904
[3] = system: Proteus mirabilis MTCC 3158
[4] = system: Enterococcus faecalis MTCC 439
[5] = system: Shigella boydii MTCC 11947
[6] = system: Stenotrophomonas maltophilia MTCC 1890
[7] = system: Pluralibacter gergoviae MTCC 3826
[8] = system: Citrobacter koseri MTCC 1657
[9] = system: Klebsiella oxytoca MTCC 2275
[10] = system: Escherichia coli K12 MG1655
[11] = system: Haemophilus influenzae MTCC 621
[12] = system: Klebsiella aerogenes MTCC 111
[13] = system: Alkalihalobacillus alcalophilus MTCC 860
[14] = system: Alcaligenes faecalis MTCC 1937
[15] = system: Pseudomonas aeruginosa MTCC 3542
[16] = system: Shigella flexneri MTCC 1457
[17] = system: Salmonella enterica subsp. enterica serovar Typhimurium ATCC 14028
[18] = system: Salmonella enterica MTCC 9844
[19] = system: Staphylococcus aureus MTCC 3160
[20] = system: Corynebacterium glutamicum MTCC 2679
[21] = system: Proteus vulgaris MTCC 1771
[22] = system: Citrobacter freundii MTCC 1658
[23] = system: Klebsiella pneumoniae MTCC 7407
[24] = system: Acinetobacter baumannii MTCC 9829
[25] = system: Staphylococcus haemolyticus MTCC 3383
[26] = system: Pseudomonas aeruginosa Ps4
[27] = system: Candida albicans ATCC 90028
Candida krusei ATCC 6258 = system: Candida krusei ATCC 6258
[28] = system: Candida parapsilosis ATCC 22019
Candida albicans SC5314 = system: Candida albicans SC5314

Question: With CSCC[C@H](NC(=O)[C@H](CCCCN)NC(=O)[C@H](CCCCN)NC(=O)[C@H](CC(C)C)NC(=O)[C@H](C)N)C(=O)N[C@@H](CC(C)C)C(=O)N[C@@H](CCCN=C(N)N)C(=O)N[C@@H](CC(C)C)C(=O)N[C@@H](C)C(=O)N[C@@H](CCCCN)C(=O)N[C@@H](CCCN=C(N)N)C(=O)N[C@@H](CC(C)C)C(=O)N[C@@H](CO)C(=O)O [ALKKMLRLAKRLS] as the molecule, how does the MIC [1] read?
Answer: 5.24 µM (≈ 8 µg/mL)

Question: What about the MIC [2] of the same molecule?
Answer: ≥ 83.8 µM

Question: What about the MIC [3] of the same molecule?
Answer: ≥ 83.8 µM

Question: What about the MIC [4] of the same molecule?
Answer: ≥ 83.8 µM

Question: And the MIC [5]?
Answer: ≥ 41.9 µM

Question: And the MIC [6]?
Answer: ≥ 83.8 µM

Question: And the MIC [7]?
Answer: ≥ 83.8 µM

Question: And the MIC [8]?
Answer: ≥ 41.9 µM

Question: And the MIC [9]?
Answer: ≥ 83.8 µM

Question: And the MIC [10]?
Answer: ≥ 41.9 µM

Question: And the MIC [11]?
Answer: ≥ 41.9 µM

Question: And the MIC [12]?
Answer: ≥ 83.8 µM

Question: And the MIC [13]?
Answer: ≥ 83.8 µM

Question: And the MIC [14]?
Answer: ≥ 83.8 µM

Question: And the MIC [15]?
Answer: ≥ 83.8 µM

Question: What about the MIC [16] of the same molecule?
Answer: 20.9 µM (≈ 32 µg/mL)

Question: And the MIC [17]?
Answer: > 83.8 µM

Question: And the MIC [18]?
Answer: 20.9 µM (≈ 32 µg/mL)

Question: And the MIC [19]?
Answer: ≥ 83.8 µM

Question: What about the MIC [20] of the same molecule?
Answer: 10.5 µM (≈ 16 µg/mL)

Question: And the MIC [21]?
Answer: ≥ 83.8 µM

Question: What about the MIC [22] of the same molecule?
Answer: ≥ 83.8 µM

Question: And the MIC [23]?
Answer: ≥ 83.8 µM

Question: What about the MIC [24] of the same molecule?
Answer: ≥ 83.8 µM

Question: What about the MIC [25] of the same molecule?
Answer: ≥ 83.8 µM

Question: CC[C@H](C)[C@H](NC(=O)[C@@H](N)CCC(=O)O)C(=O)N[C@@H](CC(C)C)C(=O)N[C@@H](CO)C(=O)N[C@@H](CCCCN)C(=O)N[C@@H](C)C(=O)N[C@@H](CC(C)C)C(=O)N[C@@H](CO)C(=O)N[C@@H](C)C(=O)N[C@@H](CC(C)C)C(=O)N[C@@H](CO)C(=O)N1CCC[C@H]1C(=O)N[C@@H](CC(C)C)C(=O)N[C@@H](C)C(=O)N[C@@H](CC(N)=O)C(=O)O [EILSKALSALSPLAN] was tested. Which MIC [1] did it give?
Answer: ≥ 83.8 µM

Question: What about the MIC [2] of the same molecule?
Answer: ≥ 83.8 µM

Question: What about the MIC [3] of the same molecule?
Answer: ≥ 83.8 µM

Question: What about the MIC [4] of the same molecule?
Answer: ≥ 83.8 µM

Question: And the MIC [5]?
Answer: ≥ 83.8 µM

Question: What about the MIC [6] of the same molecule?
Answer: ≥ 83.8 µM

Question: What about the MIC [7] of the same molecule?
Answer: ≥ 83.8 µM

Question: What about the MIC [8] of the same molecule?
Answer: ≥ 83.8 µM

Question: What about the MIC [9] of the same molecule?
Answer: ≥ 83.8 µM

Question: What about the MIC [10] of the same molecule?
Answer: ≥ 83.8 µM

Question: What about the MIC [11] of the same molecule?
Answer: ≥ 83.8 µM

Question: And the MIC [12]?
Answer: ≥ 83.8 µM

Question: And the MIC [13]?
Answer: ≥ 83.8 µM

Question: What about the MIC [14] of the same molecule?
Answer: ≥ 83.8 µM

Question: What about the MIC [15] of the same molecule?
Answer: ≥ 83.8 µM

Question: What about the MIC [16] of the same molecule?
Answer: ≥ 83.8 µM

Question: What about the MIC [17] of the same molecule?
Answer: > 83.8 µM

Question: What about the MIC [18] of the same molecule?
Answer: ≥ 83.8 µM

Question: What about the MIC [19] of the same molecule?
Answer: ≥ 83.8 µM

Question: What about the MIC [20] of the same molecule?
Answer: ≥ 83.8 µM

Question: What about the MIC [21] of the same molecule?
Answer: ≥ 83.8 µM

Question: And the MIC [22]?
Answer: ≥ 83.8 µM

Question: And the MIC [23]?
Answer: ≥ 83.8 µM

Question: And the MIC [24]?
Answer: ≥ 83.8 µM

Question: What about the MIC [25] of the same molecule?
Answer: ≥ 83.8 µM

Question: Which MIC [26] does the source give for CC[C@H](C)[C@H](NC(=O)[C@H](CCCCN)NC(=O)[C@H](CCCN=C(N)N)NC(=O)[C@H](CCC(N)=O)NC(=O)[C@H](Cc1c[nH]c2ccccc12)NC(=O)[C@@H](N)Cc1ccccc1)C(=O)N[C@@H](CCCN=C(N)N)C(=O)N[C@@H](CCCCN)C(=O)N[C@H](C(=O)N[C@@H](CCCCN)C(=O)N[C@@H](CCCCN)C(N)=O)C(C)C [FWQRKIRKVKK] here?
Answer: ≥ 165 µM

Question: With CC[C@H](C)[C@H](NC(=O)[C@@H]1CCCN1C(=O)[C@H](CCCN=C(N)N)NC(=O)[C@H](CCC(N)=O)NC(=O)[C@H](Cc1c[nH]c2ccccc12)NC(=O)[C@@H](N)Cc1ccccc1)C(=O)N[C@@H](CCCN=C(N)N)C(=O)N[C@@H](CCCCN)C(=O)N[C@H](C(=O)N[C@@H](CCCN=C(N)N)C(N)=O)C(C)C [FWQRPIRKVR] as the molecule, how does the MIC [26] read?
Answer: ≥ 180 µM

Question: Which results are given for CC[C@H](C)[C@H](NC(=O)CN)C(=O)N[C@@H](Cc1c[nH]c2ccccc12)C(=O)N[C@@H](CCCCN)C(=O)N[C@@H](CCCCN)C(=O)N[C@@H](Cc1c[nH]c2ccccc12)C(=O)N[C@H](C(=O)N[C@@H](CCCCN)C(=O)N[C@@H](CCCCN)C(=O)N[C@H](C(=O)N[C@H](C(=O)N[C@@H](CC(N)=O)C(=O)N[C@H](C(=O)N[C@@H](CC(C)C)C(=O)N[C@@H](CCCCN)C(=O)N[C@@H](CC(N)=O)C(=O)N[C@@H](CC(C)C)C(=O)N[C@@H](Cc1ccccc1)C(N)=O)C(C)C)C(C)C)C(C)C)[C@@H](C)CC [GIWKKWIKKVVNVLKNLF]?
Answer: MIC [27]: 14.5 µM (≈ 32 µg/mL); MIC (Candida krusei ATCC 6258): 14.5 µM (≈ 32 µg/mL); MIC [28]: 7.23 µM (≈ 16 µg/mL); MIC (Candida albicans SC5314): 7.23 µM (≈ 16 µg/mL)
